From ChEMBL document CHEMBL1201862, “PubChem BioAssay data set” (2004)
Activity calls are given as the source filed them.

Columns and labels:
[1] = Luminescence Cell-Based Dose Retest to Confirm Inhibitors of Cancer Stem Cells. [Related pubchem assays (depositor defined):AID2717, AID2721]; type: functional; conditions: Homo sapiens
Nonstructural protein 1 = Nonstructural protein 1 (Influenza A virus, UniProt Q194T2); type: functional, Influenza A virus (A/California/07/2009(H1N1))
[2] = molecular target: T1, Corticotropin-releasing factor receptor 2/Corticotropin-releasing factor-binding protein (Homo sapiens, UniProt P24387+Q13324); experiment: Dose Response confirmation of uHTS hits for small molecule antagonists of the CRF-binding protein and CRF-R2 receptor complex.; type: functional; conditions: read-out: IC50_Mean
T1 sequence (Q13324 whole entry): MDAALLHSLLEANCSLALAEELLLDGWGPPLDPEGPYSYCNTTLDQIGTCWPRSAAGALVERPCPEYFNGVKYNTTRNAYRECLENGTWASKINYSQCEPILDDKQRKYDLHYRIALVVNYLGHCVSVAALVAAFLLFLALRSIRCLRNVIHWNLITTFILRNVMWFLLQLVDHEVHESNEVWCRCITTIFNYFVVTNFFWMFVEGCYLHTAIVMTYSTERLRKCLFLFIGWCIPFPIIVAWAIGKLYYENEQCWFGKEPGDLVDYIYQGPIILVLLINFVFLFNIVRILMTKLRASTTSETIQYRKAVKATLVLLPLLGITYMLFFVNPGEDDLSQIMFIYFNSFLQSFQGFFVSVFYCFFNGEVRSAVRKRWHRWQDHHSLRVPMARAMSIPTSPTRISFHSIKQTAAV
T1 sequence (P24387 whole entry): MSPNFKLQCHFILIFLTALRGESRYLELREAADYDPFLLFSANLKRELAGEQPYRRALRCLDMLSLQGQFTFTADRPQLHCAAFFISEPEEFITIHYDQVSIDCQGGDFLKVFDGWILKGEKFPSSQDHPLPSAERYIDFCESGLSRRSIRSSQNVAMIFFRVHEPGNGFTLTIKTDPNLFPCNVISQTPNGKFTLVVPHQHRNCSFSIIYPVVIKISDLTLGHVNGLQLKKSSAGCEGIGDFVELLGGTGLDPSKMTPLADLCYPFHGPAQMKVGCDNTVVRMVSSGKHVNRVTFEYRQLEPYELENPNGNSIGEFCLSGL

[3] = molecular target: T1, Corticotropin-releasing factor receptor 2/Corticotropin-releasing factor-binding protein; experiment: activators of CRF receptor 2 with binding protein – uHTS hits, confirmation (AID 602473); type: functional; conditions: read-out: EC50_Mean
[4] = molecular target: T2, Calpain-2 catalytic subunit (Sus scrofa, UniProt P43367); experiment: m-calpain protease blockers, concentration series – biochemical, fluorogenic peptide substrate, dose response (AID 1420); type: functional
T2 sequence (P43367 whole entry): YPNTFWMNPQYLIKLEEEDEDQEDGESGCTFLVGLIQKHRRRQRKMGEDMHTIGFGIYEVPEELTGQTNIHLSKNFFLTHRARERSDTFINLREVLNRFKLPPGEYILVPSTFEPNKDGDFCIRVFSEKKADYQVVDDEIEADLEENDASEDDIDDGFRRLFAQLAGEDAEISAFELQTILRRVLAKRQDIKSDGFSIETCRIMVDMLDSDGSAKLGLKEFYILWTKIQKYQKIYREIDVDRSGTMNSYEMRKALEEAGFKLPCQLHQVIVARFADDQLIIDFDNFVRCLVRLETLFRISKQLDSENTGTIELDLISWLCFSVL

[5] = Luminescence Cell-Based Dose Response HTS to Identify Inhibitors of 5'UTR Stem-Loop Driven Prion Protein mRNA Translation in H4 Neuroglioblastoma Cells. [Related pubchem assays: 1827 (Project Summary), 1813 (Primary HTS)]; type: functional
[6] = luciferase reporter signal suppression in cells – H4 neuroglioma cells, luminescence, dose response (AID 1990); type: functional, cell-based
[7] = test system: Streptococcus sp. 'group A'; experiment: Streptococcus pyogenes SK(-)GAS viability under kanamycin – luminescence, BacTiterGlo, confirmation, counter-screen for streptokinase expression inhibitor project, dose response (AID 1900); type: functional, organism-based
Streptokinase A = molecular target: T3, Streptokinase A (Streptococcus pyogenes serotype M1, UniProt P10520); experiment: viability-normalized secreted streptokinase activity reduction – plasminogen activation absorbance, OD405, dose response (AID 1914); type: functional, Streptococcus pyogenes M1 GAS;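 note: secreted streptokinase activity via plasminogen activation per viability signal from cell pellet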
T3 sequence (P10520 whole entry): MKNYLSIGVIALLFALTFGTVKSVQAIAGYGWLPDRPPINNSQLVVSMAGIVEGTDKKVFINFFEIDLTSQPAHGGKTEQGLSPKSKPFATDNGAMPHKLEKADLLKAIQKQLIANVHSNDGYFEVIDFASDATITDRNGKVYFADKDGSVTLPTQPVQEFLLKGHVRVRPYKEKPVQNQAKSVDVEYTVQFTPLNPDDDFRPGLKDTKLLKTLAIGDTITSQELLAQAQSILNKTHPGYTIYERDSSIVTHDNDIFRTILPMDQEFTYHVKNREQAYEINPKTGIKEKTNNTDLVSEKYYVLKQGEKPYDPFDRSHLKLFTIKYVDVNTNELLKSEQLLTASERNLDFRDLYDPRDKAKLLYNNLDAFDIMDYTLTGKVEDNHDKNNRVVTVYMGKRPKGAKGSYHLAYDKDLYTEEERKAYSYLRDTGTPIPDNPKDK

Streptococcus = experiment: GAS UMAA2166 growth inhibition – luminescence, BacTiterGlo, counter-screen for streptokinase expression inhibitor project, dose response (AID 1915); type: functional, organism-based;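 note: potency for reduction of bacterial viability or growth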
INS1 = experiment: INS-1E survival protection against cytokine death – cell-based, luminescence, retest, dose response (AID 449756); type: functional; conditions: Rattus norvegicus;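 note: cell death triggered by IL-1 beta plus TNF-alpha plus IFN-gamma mixture; protective hits raise ATP signal compared with cytokine alone wells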
[8] = non-specific 3'UTR reporter inhibition in Clone20-Shn3RL – cell-based, Renilla luciferase, cherry-picked, counter-screen for Shn3 inhibitor project, dose response (AID 624133); type: functional
[9] = reduction of Shn3 3'UTR-driven luciferase in osteoblasts – cell-based, Clone20 osteoblasts, firefly luciferase, cherry-picked, dose response (AID 624132); type: functional;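 note: firefly luciferase luminescence from reporter carrying the Shn3 3'UTR in osteoblasts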
[10] = loss of viability in HepG2 cells – cell-based, CellTiter-Glo, cherry-picked, cytotoxicity control for Shn3 inhibitor project, dose response (AID 624134); type: functional
[11] = P. falciparum Dd2 growth inhibitors, dose response, SYBR Green, cherry-picked samples (AID 1159567); type: functional, cell-based

Sequence of Nonstructural protein 1 (Q194T2 whole entry): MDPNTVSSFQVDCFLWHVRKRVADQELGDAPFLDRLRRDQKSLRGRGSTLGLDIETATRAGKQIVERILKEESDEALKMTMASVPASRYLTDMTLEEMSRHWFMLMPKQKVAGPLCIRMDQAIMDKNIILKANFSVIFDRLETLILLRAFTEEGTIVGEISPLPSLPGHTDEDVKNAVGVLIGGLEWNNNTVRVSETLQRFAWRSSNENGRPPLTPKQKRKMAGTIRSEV

Question: With CN1C(=O)/C(=C/c2cc(N=Nc3ccccc3)ccc2O)SC1=S as the compound, how does the AC50 [1] read?
Answer: 0.644 µM (active)

Question: And the IC50 (Nonstructural protein 1)?
Answer: 14.5 µM (active)

Question: For COc1ccc(C)cc1S(=O)(=O)N1CCN(S(=O)(=O)c2cc(C)ccc2OC)CC1, which IC50 [2] is on record?
Answer: > 47.1 µM (inactive)

Question: And the EC50 [3]?
Answer: > 53 µM (inactive)

Question: For COC(=O)C1=C(C)N(C)C(C)=C(C(=O)OC)C1c1ccc(F)c(Br)c1, which IC50 [2] is on record?
Answer: > 47.1 µM (inactive)

Question: What about the EC50 [3] of the same compound?
Answer: > 53 µM (inactive)

Question: With CCCN(CCC)C(=O)CC(c1ccccc1)c1cc(Br)ccc1O (stereo not drawn) as the compound, how does the IC50 [4] read?
Answer: 16 µM (not active)

Question: For O=C(CSc1ccc(-c2ccccn2)nn1)NCc1ccc(Cl)cc1, which IC50 (Nonstructural protein 1) is on record?
Answer: 41.9 µM (active)

Question: With CCn1cc(C(=O)N2CCN(c3ccc([N+](=O)[O-])cc3)CC2)c(=O)c2ccc(C)nc21 as the compound, how does the EC50 [5] read?
Answer: > 120 µM (not active)

Question: What about the EC50 [6] of the same compound?
Answer: 21.6 µM (active)

Question: For CC(C)(C)c1ccc(OCCNC(=S)Nc2ccccc2)cc1, which IC50 [4] is on record?
Answer: 8.08 µM (not active)

Question: Which IC50 (Nonstructural protein 1) does the source give for COc1ccc(N2CCN(C(=O)CCC(=O)N3CCOc4ccc(Cl)cc43)CC2)cc1 here?
Answer: > 100 µM (active)

Question: Which results are given for COc1cccc(NC(S)=NN=C2CCCCCC2)c1?
Answer: EC50 [7]: 17.5 µM (active); EC50 (Streptokinase A): > 150 µM (not active); EC50 (Streptococcus): > 150 µM (not active); IC50 [4]: > 50 µM (not active)

Question: With Cc1ccccc1N=C(S)Nc1cccc2cnccc12 as the compound, how does the AC50 (INS1) read?
Answer: > 260 µM (inactive)

Question: For Cc1ccc(C)c(-c2csc(NC(=O)C3=COCCO3)n2)c1, which AC50 (INS1) is on record?
Answer: 7.19 µM (active)

Question: Which IC50 [4] does the source give for CC(C)(C)N(Cc1ccccc1)C(=O)CCc1ccccc1 here?
Answer: 32.5 µM (not active)

Question: What does the source list for CC1CCCC(C)N1C(=O)COC(=O)COc1ccc(C#N)cc1 (stereo not drawn)?
Answer: IC50 [2]: > 47.1 µM (inactive); EC50 [3]: > 53 µM (inactive)

Question: For CC(=O)N1CCN(C(=O)CCc2cc(C(C)(C)C)c(O)c(C(C)(C)C)c2)CC1, which AC50 [8] is on record?
Answer: 14.5 µM (active)

Question: And the AC50 [9]?
Answer: 4.46 µM (active)

Question: Which AC50 [8] does the source give for CC1C(=O)N(Cc2cn(CCC3OCCCO3)nn2)CCS(=O)(=O)N1Cc1ccc(-c2ccc(Cl)c(Cl)c2)cc1 (stereo not drawn) here?
Answer: 2.7 µM (active)

Question: What about the AC50 [10] of the same compound?
Answer: > 70 µM (inactive)

Question: And the AC50 [9]?
Answer: 3.39 µM (active)

Question: What does the source list for C[C@H](NC(=O)c1ncn2c1c(O)nc1ccc(Br)cc12)c1ccccc1?
Answer: AC50 [8]: 16.2 µM (active); AC50 [10]: 9.3 µM (active); AC50 [9]: 8.76 µM (active)

Question: Which AC50 (INS1) does the source give for C/C(=N\NC(N)=S)c1ccncc1 here?
Answer: > 260 µM (inactive)

Question: Which AC50 [11] does the source give for C[C@@H]1CN([C@H](C)CO)C(=O)c2cccc(NC(=O)Nc3cccc4ccccc34)c2O[C@H]1CN(C)C(=O)NC1CCCCC1 here?
Answer: 4.98 µM (active)

Question: For C[C@@H]1CN([C@@H](C)CO)C(=O)Cc2cc(NC(=O)NC3CCCCC3)ccc2O[C@H]1CN(C)C(=O)Nc1cccc2ccccc12, which AC50 [11] is on record?
Answer: 5.11 µM (active)

Question: Which AC50 [11] does the source give for CN(C)c1ccc2c(c1)[C@@H]1C[C@@H](CC(=O)NCc3cc(F)ccc3F)O[C@@H](CO)[C@@H]1O2 here?
Answer: 13.3 µM (active)
